From US20090032427A1, “Receptacles and Kits, Such as for Dry Powder Packaging” (Nektar Therapeutics, priority 2005, published 2009)

Assays:
[1] = cited from earlier work
[2] = amphotericin B lung-residence half-life (bronchioalveolar lavage / lung tissue homogenization); format: in vivo; conditions: pulmonary administration
fungus = test: minimum inhibitory concentration (MIC) of amphotericin B; format: cell-based; conditions: midrange of the MIC range, 300′ of FIG. 25
Method: In one version, an aerosolizeable pharmaceutical composition comprising amphotericin B is administered to the lungs and/or nasal cavity of a patient in a manner that results in an amphotericin B concentration greater than a minimum inhibitory concentration (MIC) of the fungus. The MIC is defined as the lowest concentration of amphotericin B that inhibits fungal growth. The MIC may be expressed as a particular concentration value or as a range of concentrations. A method according to one or more embodiments of the present invention administers a sufficient amount of the pharmaceutical composition to achieve a target lung concentration of amphotericin B that falls within the range of MIC values or is above a particular MIC value. In another version, the target lung concentration of amphotericin B exceeds the MIC range. In another version, the target lung concentration of amphotericin B exceeds the lowest value in an MIC range. […] As used herein, unless otherwise specified, the MIC value shall be taken to be the particular value when a particular MIC value is determined and shall be taken to be a midrange value when a range of MIC values is determined. […]
The MIC value for amphotericin B in this version has been determined to range from about 0.5 μg/g to about 4 μg/g, as shown by block 300. […]

Structure (SMILES): CCCCCCCCCCCCCCCC(=O)OC[C@H](COP(=O)([O-])OCC[N+](C)(C)C)OC(=O)CCCCCCCCCCCCCCC [DPPC, dipalmitoylphosphatidylcholine]
- solubility in water [1]: about 10^−10 mol/L

Structure (SMILES): C[C@@H]1[C@H](O)[C@@H](C)/C=C/C=C/C=C/C=C/C=C/C=C/C=C/[C@H](O[C@@H]2O[C@H](C)[C@@H](O)[C@H](N)[C@@H]2O)C[C@@H]2O[C@](O)(C[C@@H](O)C[C@@H](O)[C@H](O)CC[C@@H](O)C[C@@H](O)CC(=O)O[C@H]1C)C[C@H](O)[C@H]2C(=O)O [amphotericin B]
- amphotericin B lung-residence half-life in lung epithelial fluid ([2]; lung epithelial fluid, measured by bronchioalveolar lavage): at least 10 hours
- amphotericin B lung-residence half-life in lung tissue ([2]; lung tissue, measured by lung tissue homogenization): at least 1 week
- midrange MIC value (fungus): about 2.25 μg/g
